Measurements: publication PMC10778976, “BAY-3827 and SBI-0206965: Potent AMPK Inhibitors That Paradoxically Increase Thr172 Phosphorylation” (International Journal of Molecular Sciences, 2023)
Values belong to the compound of their own block, whether it stands above or below them.

Key:
purified rat liver AMPK = assay: Allosteric activation of rat liver AMPK by AMP with and without BAY-3827; format: biochemical
Text: (§1) AMPK assays measured the transfer of radioactivity from labelled ATP to a peptide substrate, which was separated from unreacted ATP by binding to P81 paper. This assay was described previously, except that we used [γ-^33P]ATP rather than [γ-^32P]ATP. The peptide substrate was the AMARA peptide in all experiments other than one, which analyzed allosteric activation by AMP (Figure 2A), when, for technical reasons, the SAMS peptide was used instead. With purified preparations of AMPK, it was assayed in solution, but for assays in cell lysates (Figure 3D and Figure 4D), it was first immunoprecipitated using a mixture of anti-α1 and -α2 antibodies and assayed in resuspended immunoprecipitates. After the initial immunoprecipitation of lysate containing 80 µg of protein, the pellets were washed twice with 1 mL of high salt IP buffer (50 mM Tris-HCL, pH 7.4 at 4 °C, 1 M NaCl, 1 mM EDTA, 1 mM EGTA, 50 mM NaF, 5 mM Na pyrophosphate, 1 mM dithiothreitol, 0.1% (v/v) Triton X-100) and twice with 1 mL of low salt IP buffer (as above but only 150 mM NaCl), followed by a final wash in 1 mL of assay buffer (50 mM Na Hepes, pH7.4, 150 mM NaCl, 1 mM dithiothreitol, 0.02% (v/v) Brij-35). After each wash, the pellet was recovered via centrifugation (16,000× g, 3 min) and then resuspended. The final resuspended pellets from each biological replicate were divided into two aliquots (40 µg lysate protein) to provide technical replicates and assayed as above.

[1] = tested on: endogenous AMPK from HEK-293 cells; assay: Activation of dephosphorylated immunoprecipitated AMPK by the LKB1 complex; format: biochemical, human; details: 200 µM
Description: AMPK was immunoprecipitated from HEK-293 cell lysate (2.5 mg protein) using a mixture of anti-α1 and -α2 antibodies. After extensive washing, it was incubated in a shaking incubator at 30 °C for 20 min in Hepes buffer with 50 mM MgCl2 and sufficient PPM1A to yield about 90% inactivation (total volume of 250 µL). The reaction was terminated by adding 1 mL of IP buffer and, after additional washing in the same buffer, aliquots equivalent to 80 µg of lysate protein were incubated in a shaking incubator at 30 °C for 10 min in Hepes buffer with […] and 5 mM MgCl2, with or without a limiting amount of LKB1:STRADα:MO25α complex (0.5 µg) in the presence or absence of 200 µM AMP or the indicated concentration of BAY-3827 or SBI-0206965 (total volume of 50 µL). The reaction was terminated by adding 1 mL of IP buffer and, after additional washing in the same buffer and a final wash into Hepes buffer, AMPK activity was determined using kinase assays as above.

[2] = tested on: endogenous AMPK from HEK-293 cells; assay: Protection of immunoprecipitated AMPK against inactivation by PP2Cα (PPM1A); format: biochemical, human; details: 200 µM
Description: AMPK was immunoprecipitated from HEK-293 cell lysate (2.5 mg of lysate protein) using a mixture of anti-α1 and -α2 antibodies. After extensive washing as in Section 4.5, aliquots equivalent to 80 µg of lysate protein were incubated in a shaking incubator at 30 °C for 10 min in Hepes buffer (50 mM Na Hepes, pH 7.4, 150 mM NaCl, 1 mM dithiothreitol, 0.02% (w/v) Brij-35) with 50 mM MgCl2 and sufficient PPM1A to yield about 80% inactivation, in the presence or absence of 200 µM AMP or the indicated concentration of BAY-3827 or SBI-0206965 (total volume 50 µL). The reaction was terminated by adding 1 mL of IP buffer (50 mM Tris/HCl, pH 7.4 at room temperature, 150 mM NaCl, 1 mM EDTA, 1 mM EGTA, 5 mM Na pyrophosphate, 50 mM NaF, 1 mM dithiothreitol, 0.1% (v/v) Triton X-100) and, after additional washing in the same buffer and a final wash into Hepes buffer, AMPK activity was determined using kinase assays as above.

AMPK = biological target: AMPK; set-up: method as in PMID 28625738; details: read-out: Ki, competitive with ATP; cited from earlier work
[3] = biological target: T1, “naïve” (unphosphorylated), bacterially expressed human α1β1γ1 complex (Homo sapiens, UniProt Q13131+Q9Y478); assay: Allosteric activation of naïve (unphosphorylated) α1β1γ1 complex by MK-8722 with and without BAY-3827; format: biochemical
T1 construct: (His)6
T1 sequence (Q13131 whole entry): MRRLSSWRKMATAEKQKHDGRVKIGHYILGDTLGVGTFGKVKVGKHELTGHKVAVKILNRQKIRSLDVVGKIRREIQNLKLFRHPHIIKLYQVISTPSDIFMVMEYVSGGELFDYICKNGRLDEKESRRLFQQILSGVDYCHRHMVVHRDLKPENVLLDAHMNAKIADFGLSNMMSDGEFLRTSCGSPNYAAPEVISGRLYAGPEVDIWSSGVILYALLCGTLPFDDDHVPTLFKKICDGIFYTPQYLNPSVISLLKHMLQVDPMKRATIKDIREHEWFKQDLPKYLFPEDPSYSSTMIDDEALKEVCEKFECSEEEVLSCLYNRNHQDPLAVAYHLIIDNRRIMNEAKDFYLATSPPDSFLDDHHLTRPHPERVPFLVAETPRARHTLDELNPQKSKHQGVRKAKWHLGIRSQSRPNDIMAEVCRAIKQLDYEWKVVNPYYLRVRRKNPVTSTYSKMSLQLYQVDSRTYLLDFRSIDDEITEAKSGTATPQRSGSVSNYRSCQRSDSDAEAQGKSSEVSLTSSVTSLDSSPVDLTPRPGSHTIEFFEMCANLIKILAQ
T1 sequence (Q9Y478 2-270): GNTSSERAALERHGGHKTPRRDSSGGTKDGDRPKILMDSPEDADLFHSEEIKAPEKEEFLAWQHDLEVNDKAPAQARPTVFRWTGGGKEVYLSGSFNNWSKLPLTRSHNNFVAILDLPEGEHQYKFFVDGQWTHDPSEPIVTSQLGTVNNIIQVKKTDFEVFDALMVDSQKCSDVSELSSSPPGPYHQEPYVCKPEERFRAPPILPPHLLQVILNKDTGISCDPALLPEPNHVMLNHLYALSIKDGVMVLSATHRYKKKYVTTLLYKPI
T1 sequence (P54619 whole entry partner): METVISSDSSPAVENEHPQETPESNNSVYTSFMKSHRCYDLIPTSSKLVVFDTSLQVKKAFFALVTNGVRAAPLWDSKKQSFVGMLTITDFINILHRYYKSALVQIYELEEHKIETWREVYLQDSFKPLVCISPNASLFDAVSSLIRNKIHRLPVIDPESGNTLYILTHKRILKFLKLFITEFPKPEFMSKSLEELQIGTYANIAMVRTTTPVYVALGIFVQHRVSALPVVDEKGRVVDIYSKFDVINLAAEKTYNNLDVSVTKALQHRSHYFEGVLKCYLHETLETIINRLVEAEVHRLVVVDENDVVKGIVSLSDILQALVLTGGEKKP
Text: as §1

110 kinases = tested on: 110 kinases; set-up: method as in ref 27 = [27]; 27. International Centre for Kinase Profiling Kinase Profiling Inhibitor Database Available online: https://www.kinase-screen.mrc.ac.uk/kinase-inhibitors (accessed on 14 November 2023); details: 10 µM, screen of 110 kinases; cited from earlier work
71 kinases = tested on: 71 kinases; set-up: method as in PMID 17850214; details: 1 µM, screen against 71 kinases; cited from earlier work
[4] = tested on: human AMPK (α2β1γ1 complex); details: control compound; cited from earlier work
[5] = tested on: acetyl-CoA carboxylase (ACC, Ser80) phosphorylation in U2OS cells; assay: ACC phosphorylation in U2OS cells (Western blot); format: cell-based, human; details: 3 µM
Description: (§2) T-Rex U2OS cells carrying a Flp Recombinase Target (FRT) site were generated as described previously and grown in Dulbecco’s Modified Eagle’s Medium (DMEM) supplemented with 10% (v/v) FBS and 1% (v/v) penicillin/streptomycin.
(§3) Cells were lysed rapidly in situ on culture plates using ice-cold lysis medium containing phosphatase inhibitors, as described previously.
(§4) SDS-PAGE was performed using precast NuPAGE Tris-acetate 3–8% gradient polyacrylamide gels in Tris-acetate running buffer when analyzing ACC, GBF1, or Raptor, or NuPAGE Bis-Tris 4–12% gradient polyacrylamide gels in the MOPS buffer system (ThermoFisher Scientific, Waltham, MA, USA) for other proteins (unless stated otherwise). Proteins were transferred to nitrocellulose membranes using the iBlot 2 system (ThermoFisher Scientific). Membranes were enhanced if necessary using SuperSignal Western Blot Enhancer (ThermoFisher Scientific), then blocked for 1 h in Li-Cor Odyssey blocking buffer. The membranes were probed with the appropriate primary antibody ([…]) overnight at 4 °C. Detection was performed using secondary antibody or streptavidin probe (for total ACC) coupled to IR 680 or IR 800 dye, and the membranes were scanned using the LICOR Odyssey IR imager. Protein concentrations were determined by Coomassie Blue binding with bovine serum albumin as a standard. The cellular levels of AMP and ATP were determined via direct perchloric acid extraction from cells, with LC:MS used to estimate the levels of each nucleotide.

[6] = tested on: GBF1 (Thr1337) phosphorylation in U2OS cells; assay: GBF1 phosphorylation in U2OS cells (Western blot); format: cell-based, human; details: 3 µM
Description: as §2, §3, §4

[7] = tested on: Raptor (Ser792) phosphorylation in U2OS cells; assay: Raptor phosphorylation in U2OS cells (Western blot); format: cell-based, human; details: 3 µM
Description: as §2, §3, §4

[8] = in the presence of 30 nM BAY-3827

EC50 (purified rat liver AMPK; without BAY-3827): 5.9 µM | IC50 (purified rat liver AMPK; without BAY-3827, read-out: IC50 for inhibition by high AMP): 1800 µM
Compound: Nc1ncnc2c1ncn2[C@@H]1O[C@H](COP(=O)(O)O)[C@@H](O)[C@H]1O [AMP]
maximal activation by AMP (purified rat liver AMPK; [8]): 2.7 fold | maximal activation by AMP (purified rat liver AMPK; without BAY-3827): 2.9 fold | promotion of activation by LKB1 [1]: > 2 fold | protection against inactivation by PPM1A [2]: substantial protection

Compound: CN(C)S(=O)(=O)c1ccc2c(c1)/C(=C/c1cc3c([nH]1)CCCC3)C(=O)N2 [SU6656]
Ki (AMPK): 0.17 µM

maximal activation by MK-8722 [3, 8]: 6.7 fold | EC50 ([3]; without BAY-3827): 1.1 µM | maximal activation by MK-8722 ([3]; without BAY-3827): 11 fold
Compound: MK-8722

Compound: c1cc(-c2cnn3cc(-c4ccc(OCCN5CCCCC5)cc4)cnc23)ccn1 [compound C, dorsomorphin]
number of kinases inhibited to a greater extent than AMPK (110 kinases): no less than 30 | number of kinases inhibited to a greater extent than AMPK (71 kinases): 9

Compound: CC1=C(C#N)C(c2ccc3c(c2)c(NC(=O)c2ccccc2C)nn3C)C(C#N)=C(C)N1 [BAY-974]
inhibition of AMPK [4]: did not inhibit | elimination of MK-8722-stimulated ACC phosphorylation [5]: not | elimination of MK-8722-stimulated GBF1 phosphorylation [6]: not | elimination of MK-8722-stimulated Raptor phosphorylation [7]: not
